IC50 data for one molecule are collected here from ChEMBL document CHEMBL1146222, “Cyclic depsipeptides, ichthyopeptins A and B, from Microcystis ichthyoblabe” (J Nat Prod, 2007).

This assay relates to Influenza A virus. In words: Antiviral activity against Influenza A virus (A/WSN/33/London (H1N1)) in MDCK cells after 72 hrs by neutral red dye uptake assy. It counts as functional, organism-based.

Each structure is given as a SMILES string. ≈ marks a conversion by molar mass, not a printed value.

As usually defined, the IC50 is the concentration that inhibits the measured activity by half. Low readings indicate inhibition by little substance, high ones a need for much substance. The molecule `NC12CC3CC(CC(C3)C1)C2` [AMANTADINE] registered an IC50 of 15 µg/mL (≈ 99.2 µM).
